# From US20070059824A1, “Human umbilical cord blood-derived pluripotent fibroblast-like-macrophages” (priority 2005, published 2007)
# B1: macrophage colony-stimulating factor (protein, UniProt P09603 33-554, looked up)
# Macrophage colony-stimulating …: EEVSEYCSHMIGSGHLQSLQRLIDSQMETSCQITFEFVDQEQLKDPVCYLKKAFLLVQDIMEDTMRFRDNTPNAIAIVQLQELSLRLKSCFTKDYEEHDKACVRTFYETPLQLLEKVKNVFNETKNLLDKDWNIFSKNCNNSFAECSSQDVVTKPDCNCLYPKAIPSSDPASVSPHQPLAPSMAPVAGLTWEDSEGTEGSSLLPGEQPLHTVDPGSAKQRPPRSTCQSFEPPETPVVKDSTIGGSPQPRPSVGAFNPGMEDILDSAMGTNWVPEEASGEASEIPVPQGTELSPSRPGGGSMQTEPARPSNFLSASSPLPASAKGQQPADVTGTALPRVGPVRPTGQDWNHTPQKTDHPSALLRDPPEPGSPRISSLRPQGLSNPSTLSAQPQLSRSHSSGSVLPLGELEGRRSTRDRRSPAEPEGGPASEGAARPLPRFNSVPLTDTGHERQSEGSFSPQLQESVFHLLVPSVILVLLAVGGLLFYRWRRRSHQEPQRADSPLEQPEGSPLTQDDRQVELPV
# notes: Recombinant human macrophage colony-stimulating factor from Sigma
# Legend:
# [1] = tested on: insulin-expressing cells derived from TCB f-MΦ; experiment: Insulin release from insulin-expressing cells derived from TCB f-MΦ (ELISA); format: cell-based, human; conditions: 1 h
# Procedure: TPO-expanded CB f-MΦ (TCB f-MΦ) cultured in 24-well tissue culture plates (Costar, Corning, N.Y.) at 60-70% confluence was treated for 3 days with 1 μg/ml LPS+25 mM glucose in 1 ml 7% FBS-RPMI 1640 medium per well. TCB f-MΦ cultured in the same concentration of glucose served as control. Insulin release was performed as previously described with minor modifications [F. Schuit, A. De Vos, S. Farfari, K. Moens, D. Pipeleers, T. Brun, M. Prentki, Metabolic fate of glucose in purified islet cells. Glucose-regulated anaplerosis in beta cells, J. Biol. Chem. 272 (1997) 18572-18579; and N. Lumelsky, O. Blondel, P. Laeng, I. Velasco, R. Ravin, R. McKay, Differentiation of embryonic stem cells to insulin-secreting structures similar to pancreatic islets, Science 292 (2001) 1389-1394]. Cells were washed 5 times with PBS to remove the serum and then incubated with Kreb's buffer (120 mM NaCl, 5 mM KCl, 2.5 mM CaCl2, 1.1 mM MgCl2, 25 mM NaHCO3, 0.1% BSA) [N. Lumelsky, O. Blondel, P. Laeng, I. Velasco, R. Ravin, R. McKay, Differentiation of embryonic stem cells to insulin-secreting structures similar to pancreatic islets, Science 292 (2001) 1389-1394] for 30 min in the absence of glucose, at 37° C., 8% CO2 conditions. After removing the Kreb's buffer, cells were incubated with different concentration of glucose (0, 5, 10, and 25 mM) and/or other secretagogues (10 μM tolbudamide (Sigma), 500 μM diazoxide (Sigma), or 25 mM mannite (Sigma) in 300 μl Kreb's buffer/well for 1 h. Each treatment had duplicated wells. Insulin levels were monitored using an ultrasensitive human insulin enzyme-linked immunosorbent assay (ELISA) kit (Alpco Diagnostics, Windham, N.H.) following the manufacturer's protocols. Cell number/well from each treatment was finally quantified for calculating insulin level.
# [2] = tested on: CB f-MΦ; experiment: Cell proliferation of CB f-MΦ with TPO (CyQUANT Cell Proliferation Assay); format: cell-based, human
# Procedure: Therefore, this stage f-MΦ, at ˜80% purity, was selected to examine the effect of TPO. Cells were washed with RPMI 1640 medium three times and then incubated with different concentration of TPO, such as 80, 40, 20, 10, 5, 2.5, 1.25, 0.625, and 0 ng/ml in the 8-well Lab-Tek chamber slides (Nunc, Naperville, Ill.) at 37° C., 8% CO2 conditions. After 4 days, cell proliferation was evaluated using CyQUANT® Cell Proliferation Assay Kit (Molecular Probes, Eugene, Oreg.). Cell fluorescence was measured using a Synergy HT Multi-Detection microplate reader (Bio-Tek Instruments Inc., Winooski, Vt.) equipped with filters for ˜480 nm excitation and ˜520 nm emission. The optical values were analyzed using the manufacturer's software KC4 v3.1.
# [3] = tested on: CB f-MΦ; experiment: Immunostaining of TPO-expanded CB f-MΦ for phenotype markers; format: cell-based, human
# Procedure: For f-MΦ expansion, the cells at 70% confluence were passaged at ratio 1:2 by pippetting and gently scraping with 100 μl tips (Rainin, Woburn, Mass.). Media were changed every 5-7 days with the fresh RPMI 1640 medium supplemented with 3.5% fetal bovine serum and 5 ng/ml thrombopoietin (TPO).
# [4] = tested on: TCB f-MΦ; experiment: Differentiation of f-MΦ into insulin-expressing cells with LPS and high glucose (immunostaining); format: cell-based, human
# Source text: The final insulin concentration in the culture medium was 0.196 μU/ml.
# [5] = tested on: TCB f-MΦ; conditions: 50 ng/ml VEGF for 5-7 days
# Procedure: The cells were incubated for 20 min at room temperature with 2.5% diluted normal horse serum (Vector Laboratories, Burlingame, Calif.) to block nonspecific staining. Cells were then incubated with primary antibodies, the isotype-matched IgG1κ (BD PharMingen, San Diego, Calif.) (as control for mouse monoclonal antibodies), and normal rabbit serum (as control for rabbit polyclonal antibodies). After staining, the slides were mounted with Mounting Medium (Vector Laboratories, Burlingame, Calif.). Cells were viewed and photographed using a Zeiss LSM 510 META confocal microscope equipped with a 25× water immersion objective (Carl Zeiss Inc.), with Argon 488 nm laser for FITC fluorochrome filtered through LP505.
# The TPO-expanded CB f-MΦ was treated with 50 ng/ml VEGF (Cell Sciences Inc., Canton, Mass.) in RPMI-1640 medium supplemented with 7% heat inactivated FBS as previously described [Y. Zhao, D. Glesne, E. Huberman, A human peripheral blood monocyte-derived subset acts as pluripotent stem cells, Proc. Natl. Acad. Sci. U.S.A. 100 (2003) 2426-2431]. After 5-7 days, the treated and untreated cells were prepared for characterizing with endothelial markers, including antibodies to Flt-1, Flk-1, vWF, CD31, and incorporating Dil-Ac-LDL as previously described [D. A. Ingram, L. E. Mead, H. Tanaka, V. Meade, A. Fenoglio, K. Mortell, K. Pollok, M. J. Ferkowicz, D. Gilley, M. C.
# [6] = tested on: Human umbilical cord blood-derived monocytes; experiment: Generation of f-MΦ from cord blood monocytes with M-CSF (morphology, cell counting); format: cell-based
# Procedure: Human umbilical cord blood samples (50-100 ml/unit) were obtained from healthy donors (Life-Source Blood Services, Glenview, Ill.). The f-MΦ culture was performed as previously described using human peripheral blood (14). Briefly, purified monocytes were seeded into the 8-Well Lab-Tek II Chamber Slide (Fisher Scientific) at 1×10^5 cells/ml, 0.5 ml/well in RPMI 1640 medium supplemented with 7% fetal bovine serum (Invitrogen, Carlsbad, Calif.) and 50 ng/ml M-CSF. The purity of f-MΦ normally reached 80-90% after incubation for 10-14 days at 37° C., 8% CO2 and was then used for experiments.
# [7] = 5 ng/ml TPO, culture for 2 months
molecule,measurement,setting,value
CC1=NS(=O)(=O)c2cc(Cl)ccc2N1 [diazoxide],insulin release,"[1]; 500 μM, in the presence of 25 mM glucose",inhibits insulin release
OC[C@@H](O)[C@@H](O)[C@H](O)[C@H](O)CO [mannite],insulin release,"[1]; 25 mM, osmolarity control",failed to stimulate insulin release
CCCCNC(=O)NS(=O)(=O)c1ccc(C)cc1 [tolbutamide],insulin release,"[1]; 10 μM, in the presence of 5 mM glucose",stimulates insulin release
Thrombopoietin [TPO],cell number relative to TPO-untreated CB f-MΦ,[2]; TPO 2.5-5 ng/ml,about 2 times
same,cell number relative to control monocytes,[2]; TPO 2.5-5 ng/ml,~10 times
same,proliferation of CB f-MΦ at higher dosage,[2]; TPO >40 ng/ml,inhibited the proliferation
same,"CD34 expression, share of cells",[3]; [7],~30%
same,"expression of CD45, CD14, CD163 and CD117",[3]; [7],at the same level as parental CB f-MΦ
same,"expression of platelet and megakaryocyte markers CD41a, CD41b, CD42b",[3]; 4th and 5th passaged cells after TPO expansion,not induced
lipopolysaccharide [LPS],cells expressing glucagon-like peptide 1 receptor,"[4]; CB f-MΦ, 50 ng/ml LPS in the presence of 25 mM glucose for 2 days",around 70%
same,cells strongly positive for insulin and C-peptide,[4]; LPS 1 μg/ml in the presence of 25 mM glucose,85-90%
vascular endothelial cell growth factor [VEGF],expression of endothelial cell-associated markers,[5],"significantly expressed Flt-1, Flk-1, vWF, and CD31"
B1,cells elongated,[6]; 50 ng/ml M-CSF for 10-14 days,80-90%
same,cell number,"[6]; 50 ng/ml M-CSF, FIG. 1",significantly increased the cell number
